Source: ChEMBL document CHEMBL1201862, “PubChem BioAssay data set” (2004)
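Dose response: 5 concentrations. Exposure: 48 h. Format: 96-well plates. Endpoint: linear interpolation; highest concentration if not reached. GI50 is the concentration that inhibits growth by half.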 The source made the active and inactive calls. Cut-off read from the data, not from the text of the source: active = GI50 up to about 1.1 µM and inactive = higher.

Key:
Experiment in all cases: NCI-60 cell line screen, 48 h
786-0 = tested on: 786-0
A549 = tested on: A549
CCRF-CEM = tested on: CCRF-CEM
EKVX = tested on: EKVX
HCC 2998 = tested on: HCC 2998
HCT-116 = tested on: HCT-116
M14 = tested on: M14
Malme-3M = tested on: Malme-3M
NCI-H522 = tested on: NCI-H522
RXF 393 = tested on: RXF 393
SF-268 = tested on: SF-268
SF-539 = tested on: SF-539
SK-MEL-28 = tested on: SK-MEL-28
SK-MEL-2 = tested on: SK-MEL-2
SK-MEL-5 = tested on: SK-MEL-5
SK-OV-3 = tested on: SK-OV-3
SNB-19 = tested on: SNB-19
SW-620 = tested on: SW-620
TK-10 = tested on: TK-10
U-251 = tested on: U-251

Measured: GI50

O=C1c2ccccc2C(=O)c2c1ccc1conc21
active: CCRF-CEM 1.04 µM
inactive: 786-0 2.75 µM | A549 4.95 µM | EKVX 2.08 µM | HCC 2998 15.8 µM | HCT-116 1.52 µM | M14 2.26 µM | Malme-3M 2.48 µM | NCI-H522 1.7 µM | RXF 393 3.08 µM | SF-268 2.56 µM | SF-539 1.95 µM | SK-MEL-28 3.41 µM | SK-MEL-2 3.52 µM | SK-MEL-5 1.92 µM | SK-OV-3 6.46 µM | SNB-19 5.48 µM | SW-620 2.1 µM | TK-10 6.44 µM | U-251 1.62 µM

COc1cc(Cl)cc(O)c(=O)c1OC
inactive: 786-0 61.1 µM | CCRF-CEM 12.7 µM | EKVX 25.4 µM | HCC 2998 63.4 µM | HCT-116 35.8 µM | M14 41.8 µM | Malme-3M 54.7 µM | NCI-H522 21.9 µM | RXF 393 26.9 µM | SF-268 25.3 µM | SF-539 44.5 µM | SK-MEL-28 92.7 µM | SK-MEL-2 53.2 µM | SK-OV-3 > 62.5 µM | SNB-19 56.1 µM | TK-10 44.1 µM | U-251 40.1 µM

CCCCC(=O)NC1(c2cc3ccccc3s2)CCCCC1
inactive: 786-0 > 100 µM | A549 > 100 µM | CCRF-CEM 19.4 µM | EKVX > 100 µM | HCC 2998 > 100 µM | HCT-116 > 100 µM | M14 > 100 µM | Malme-3M > 100 µM | NCI-H522 > 100 µM | RXF 393 > 100 µM | SF-268 > 100 µM | SF-539 33.2 µM | SK-MEL-28 > 100 µM | SK-MEL-2 > 100 µM | SK-MEL-5 > 100 µM | SK-OV-3 > 100 µM | SNB-19 > 100 µM | SW-620 > 100 µM | TK-10 > 100 µM | U-251 > 100 µM

O=C1c2sccc2C(=O)c2c(CO)csc21
inactive: 786-0 3.94 µM | CCRF-CEM 3.37 µM | EKVX 6.97 µM | HCC 2998 3.44 µM | HCT-116 3.04 µM | M14 2.21 µM | Malme-3M 1.91 µM | NCI-H522 1.92 µM | RXF 393 1.39 µM | SF-268 6.5 µM | SF-539 3.65 µM | SK-MEL-28 7.8 µM | SK-MEL-2 2.85 µM | SK-OV-3 11.4 µM | SNB-19 5.56 µM | SW-620 6.98 µM | TK-10 7.05 µM | U-251 6.03 µM
active: A549 0.695 µM | SK-MEL-5 0.83 µM

CN(C)N1C(=O)SCC(c2ccccc2)(c2ccccc2)C1=O
inactive: 786-0 > 100 µM | A549 68.2 µM | CCRF-CEM > 100 µM | EKVX > 100 µM | HCC 2998 > 100 µM | HCT-116 > 100 µM | M14 > 100 µM | Malme-3M > 100 µM | NCI-H522 84.5 µM | RXF 393 > 100 µM | SF-268 > 100 µM | SF-539 > 100 µM | SK-MEL-28 > 100 µM | SK-MEL-2 63.4 µM | SK-MEL-5 > 100 µM | SK-OV-3 > 100 µM | SNB-19 > 100 µM | SW-620 > 100 µM | TK-10 > 100 µM | U-251 > 100 µM

O=C1[C@@H]2[C@@H](c3ccccc3)[C@]2(Cl)C(=O)[C@H]2[C@H](c3ccccc3)[C@@]12Cl
inactive: 786-0 > 100 µM | A549 > 100 µM | CCRF-CEM > 100 µM | EKVX > 100 µM | HCC 2998 > 100 µM | HCT-116 > 100 µM | M14 > 100 µM | Malme-3M > 100 µM | NCI-H522 > 100 µM | RXF 393 > 100 µM | SF-268 > 100 µM | SF-539 > 100 µM | SK-MEL-28 > 100 µM | SK-MEL-2 > 100 µM | SK-MEL-5 > 100 µM | SK-OV-3 > 100 µM | SNB-19 > 100 µM | SW-620 > 100 µM | TK-10 > 100 µM | U-251 > 100 µM

O=[N+]([O-])C1(C2([N+](=O)[O-])CCCC2)CCCC1
inactive: 786-0 > 100 µM | A549 > 100 µM | CCRF-CEM > 100 µM | EKVX > 100 µM | HCC 2998 > 100 µM | HCT-116 > 100 µM | M14 > 100 µM | Malme-3M > 100 µM | NCI-H522 50.7 µM | RXF 393 > 100 µM | SF-268 > 100 µM | SF-539 > 100 µM | SK-MEL-28 > 100 µM | SK-MEL-2 > 100 µM | SK-MEL-5 > 100 µM | SK-OV-3 > 100 µM | SNB-19 > 100 µM | SW-620 > 100 µM | TK-10 > 100 µM | U-251 > 100 µM

CC12CCC(C(=O)O1)C(C)(C)O2 (stereo not given)
inactive: 786-0 > 100 µM | A549 > 100 µM | CCRF-CEM > 100 µM | EKVX > 100 µM | HCC 2998 > 100 µM | HCT-116 > 100 µM | M14 > 100 µM | Malme-3M > 100 µM | NCI-H522 > 100 µM | RXF 393 > 100 µM | SF-268 > 100 µM | SF-539 > 100 µM | SK-MEL-28 > 100 µM | SK-MEL-2 > 100 µM | SK-OV-3 > 100 µM | SNB-19 > 100 µM | SW-620 > 100 µM | TK-10 > 100 µM | U-251 > 100 µM

CC(=O)OC1=NN=C2COC(c3ccccc3OC(C)=O)=NN2C1
inactive: 786-0 24.4 µM | A549 > 50 µM | CCRF-CEM > 50 µM | EKVX > 50 µM | HCC 2998 > 50 µM | HCT-116 > 50 µM | M14 16.7 µM | Malme-3M 27.2 µM | NCI-H522 > 50 µM | RXF 393 > 50 µM | SF-268 34.8 µM | SF-539 > 50 µM | SK-MEL-28 21.9 µM | SK-MEL-2 36.2 µM | SK-MEL-5 9.75 µM | SK-OV-3 > 50 µM | SNB-19 > 50 µM | SW-620 > 50 µM | TK-10 > 50 µM | U-251 > 50 µM

N=c1oc2ccccc2cc1-c1nc2ccccc2[nH]1
inactive: 786-0 15.4 µM | A549 74.1 µM | CCRF-CEM 14 µM | EKVX 18.2 µM | HCC 2998 71.3 µM | HCT-116 49.1 µM | M14 70.8 µM | Malme-3M 24.9 µM | NCI-H522 1.89 µM | RXF 393 38.9 µM | SF-268 64.9 µM | SF-539 44.3 µM | SK-MEL-28 89.9 µM | SK-MEL-2 49.2 µM | SK-MEL-5 20.8 µM | SK-OV-3 13.6 µM | SNB-19 98.9 µM | SW-620 36.6 µM | TK-10 17.7 µM | U-251 61.7 µM

CCOC(=O)C(C#N)C1=CC(=O)C(=O)c2ccc(OC)cc21 (stereo not given)
inactive: 786-0 25.1 µM | A549 19.7 µM | CCRF-CEM 43.3 µM | EKVX 22.7 µM | HCC 2998 16.2 µM | HCT-116 20.7 µM | M14 15.6 µM | Malme-3M 16.9 µM | NCI-H522 3.89 µM | RXF 393 21.8 µM | SF-268 30.2 µM | SF-539 18.4 µM | SK-MEL-28 21.3 µM | SK-MEL-2 12.8 µM | SK-MEL-5 15.2 µM | SK-OV-3 18.4 µM | SNB-19 22.1 µM | SW-620 18.4 µM | TK-10 38.5 µM | U-251 29.2 µM

CCCNCC(=O)O[C@]1(CC)C(=O)OCc2c1cc1n(c2=O)Cc2cc3ccccc3nc2-1
inactive: EKVX 25.1 µM | SK-MEL-28 2.31 µM | SK-MEL-2 1.13 µM | TK-10 4.43 µM
active: 786-0 < 0.01 µM | A549 0.0322 µM | CCRF-CEM < 0.01 µM | HCC 2998 0.661 µM | HCT-116 0.164 µM | M14 0.0681 µM | Malme-3M 0.334 µM | NCI-H522 0.0271 µM | RXF 393 0.0397 µM | SF-268 < 0.01 µM | SF-539 0.0118 µM | SK-MEL-5 0.119 µM | SK-OV-3 0.0679 µM | SNB-19 0.0364 µM | U-251 < 0.01 µM

COC1=CC(=O)C2C(C1=O)C(c1ccc(OC)c(OC)c1)[C@H]2C (stereo not given in full)
inactive: 786-0 18 µM | A549 > 100 µM | CCRF-CEM 22.6 µM | EKVX > 100 µM | HCC 2998 > 100 µM | HCT-116 18 µM | M14 19 µM | Malme-3M 19.6 µM | NCI-H522 12.8 µM | RXF 393 19.7 µM | SF-268 > 100 µM | SF-539 > 100 µM | SK-MEL-28 20.3 µM | SK-MEL-2 > 100 µM | SK-MEL-5 22.4 µM | SK-OV-3 > 100 µM | SNB-19 > 100 µM | SW-620 20 µM | TK-10 19 µM | U-251 > 100 µM

COc1ccc(/C=C/C(=O)/C=C/c2ccc(OC)cc2)cc1
inactive: 786-0 46.5 µM | A549 46 µM | CCRF-CEM 31.8 µM | EKVX 41.7 µM | HCT-116 11.2 µM | M14 21.1 µM | Malme-3M > 100 µM | NCI-H522 42.8 µM | RXF 393 18.3 µM | SF-268 54.6 µM | SF-539 26.4 µM | SK-MEL-28 > 100 µM | SK-MEL-2 33.3 µM | SK-MEL-5 31.3 µM | SK-OV-3 > 100 µM | SNB-19 > 100 µM | SW-620 23.7 µM | TK-10 73.3 µM | U-251 23.7 µM
active: HCC 2998 0.222 µM
